{"source": "patent US20230278972A1", "about": "“SUBSTITUTED HALOALKYL SULFONANILIDE HERBICIDES” (FMC Corporation, priority 2020, published 2023)", "key": {"rice (Oryza sativa)": {"tested_on": "rice (Oryza sativa)", "test": "Test B flooded paddy test, rice", "settings": "336 h, read-out: Plant response rating, Rice"}, "kochia (Bassia scoparia) [1]": {"tested_on": "kochia (Bassia scoparia)", "test": "Test A preemergence, kochia", "format": "in vivo", "settings": "Bassia scoparia, pre-emergence, 240 h; Preemergence, 1000 g ai/ha; 0 to 100 scale (0 no effect, 100 complete control); read-out: Plant response rating, Kochia", "method_in_brief": "(§1)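 Greenhouse pot test in a loam–sand blend; compounds delivered in a non-phytotoxic solvent carrying a surfactant, applied either as a directed spray to soil at seeding or over seedlings 2 to 10 cm high with one to two leaves.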"}, "[2]": {"tested_on": "galium (catchweed bedstraw, Galium aparine)", "test": "Test A postemergence, galium", "format": "in vivo", "settings": "Galium, post-emergence, 240 h; Postemergence, 1000 g ai/ha; visual injury, 0 to 100 scale (0 no effect, 100 complete control), approx. 10 days; read-out: Plant response rating, Galium", "method_in_brief": "(§2)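 Formulated with a surfactant in a non-phytotoxic solvent, compounds are applied to loam–sand pots, either to bare soil immediately after seeding (preemergence) or to seedlings of 2 to 10 cm bearing one to two leaves (postemergence).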"}, "[3]": {"tested_on": "ducksalad (Heteranthera limosa)", "test": "Test B flooded paddy test, ducksalad", "settings": "336 h, read-out: Plant response rating, Ducksalad"}, "[4]": {"tested_on": "ragweed (common ragweed, Ambrosia artemisiifolia)", "test": "Test A postemergence, ragweed", "format": "in vivo", "settings": "Ambrosia artemisiifolia, post-emergence, 240 h; Postemergence, 1000 g ai/ha; visual injury, 0 to 100 scale (0 no effect, 100 complete control), approx. 10 days; read-out: Plant response rating, Ragweed", "method_in_brief": "as §1"}, "[5]": {"tested_on": "blackgrass (Alopecurus myosuroides)", "test": "Test A postemergence, blackgrass", "format": "in vivo", "settings": "Alopecurus myosuroides, post-emergence, 240 h; Postemergence, 1000 g ai/ha; visual injury, 0 to 100 scale (0 no effect, 100 complete control), approx. 10 days; read-out: Plant response rating, Blackgrass", "method_in_brief": "as §1"}, "kochia (Bassia scoparia) [6]": {"tested_on": "kochia (Bassia scoparia)", "test": "Test A postemergence, kochia", "format": "in vivo", "settings": "Bassia scoparia, post-emergence, 240 h; Postemergence, 1000 g ai/ha; visual injury, 0 to 100 scale (0 no effect, 100 complete control), approx. 10 days; read-out: Plant response rating, Kochia", "method_in_brief": "as §1"}, "[7]": {"tested_on": "barnyardgrass (Echinochloa crus-galli)", "test": "Test B flooded paddy test, barnyardgrass", "settings": "336 h, read-out: Plant response rating, Barnyardgrass"}, "[8]": {"tested_on": "Foxtail, Giant (giant foxtail, Setaria faberi)", "test": "Test A preemergence, Foxtail, Giant", "format": "in vivo", "settings": "Setaria faberi, pre-emergence, 240 h; Preemergence, 1000 g ai/ha; 0 to 100 scale (0 no effect, 100 complete control); read-out: Plant response rating, Foxtail, Giant", "method_in_brief": "as §1"}, "[9]": {"tested_on": "ragweed (common ragweed, Ambrosia artemisiifolia)", "test": "Test A preemergence, ragweed", "format": "in vivo", "settings": "Ambrosia artemisiifolia, pre-emergence, 240 h; Preemergence, 1000 g ai/ha; 0 to 100 scale (0 no effect, 100 complete control); read-out: Plant response rating, Ragweed", "method_in_brief": "as §1"}, "[10]": {"tested_on": "barnyardgrass (Echinochloa crus-galli)", "test": "Test A preemergence, barnyardgrass", "format": "in vivo", "settings": "Echinochloa crus-galli, pre-emergence, 240 h; Preemergence, 1000 g ai/ha; 0 to 100 scale (0 no effect, 100 complete control); read-out: Plant response rating, Barnyardgrass", "method_in_brief": "as §1"}, "[11]": {"tested_on": "Foxtail, Giant (giant foxtail, Setaria faberi)", "test": "Test A postemergence, Foxtail, Giant", "format": "in vivo", "settings": "Setaria faberi, post-emergence, 240 h; Postemergence, 1000 g ai/ha; visual injury, 0 to 100 scale (0 no effect, 100 complete control), approx. 10 days; read-out: Plant response rating, Foxtail, Giant", "method_in_brief": "as §1"}, "[12]": {"tested_on": "Ryegrass, Italian (Italian ryegrass, Lolium multiflorum)", "test": "Test A postemergence, Ryegrass, Italian", "format": "in vivo", "settings": "Lolium multiflorum, post-emergence, 240 h; Postemergence, 1000 g ai/ha; visual injury, 0 to 100 scale (0 no effect, 100 complete control), approx. 10 days; read-out: Plant response rating, Ryegrass, Italian", "method_in_brief": "as §1"}, "[13]": {"tested_on": "barnyardgrass (Echinochloa crus-galli)", "test": "Test A postemergence, barnyardgrass", "format": "in vivo", "settings": "Echinochloa crus-galli, post-emergence, 240 h; Postemergence, 1000 g ai/ha; visual injury, 0 to 100 scale (0 no effect, 100 complete control), approx. 10 days; read-out: Plant response rating, Barnyardgrass", "method_in_brief": "as §2"}, "[14]": {"tested_on": "pigweed (Amaranthus retroflexus)", "test": "Test A postemergence, pigweed", "format": "in vivo", "settings": "Amaranthus retroflexus, post-emergence, 240 h; Postemergence, 1000 g ai/ha; visual injury, 0 to 100 scale (0 no effect, 100 complete control), approx. 10 days; read-out: Plant response rating, Pigweed", "method_in_brief": "as §1"}, "[15]": {"tested_on": "Ryegrass, Italian (Italian ryegrass, Lolium multiflorum)", "test": "Test A preemergence, Ryegrass, Italian", "format": "in vivo", "settings": "Lolium multiflorum, pre-emergence, 240 h; Preemergence, 1000 g ai/ha; 0 to 100 scale (0 no effect, 100 complete control); read-out: Plant response rating, Ryegrass, Italian", "method_in_brief": "as §1"}, "corn (Zea mays)": {"tested_on": "corn (Zea mays)", "test": "Test A postemergence, corn", "format": "in vivo", "settings": "Zea mays, post-emergence, 240 h; Postemergence, 1000 g ai/ha; visual injury, 0 to 100 scale (0 no effect, 100 complete control), approx. 10 days", "method_in_brief": "as §1"}, "[16]": {"tested_on": "pigweed (Amaranthus retroflexus)", "test": "Test A preemergence, pigweed", "format": "in vivo", "settings": "Amaranthus retroflexus, pre-emergence, 240 h, 1000 g ai/ha, 0 to 100 scale (0 no effect, 100 complete control), read-out: Plant response rating, Pigweed", "method_in_brief": "as §2"}, "[17]": {"tested_on": "wheat (Triticum aestivum)", "test": "Test A postemergence, wheat", "format": "in vivo", "settings": "Triticum aestivum, post-emergence, 240 h; Postemergence, 1000 g ai/ha; visual injury, 0 to 100 scale (0 no effect, 100 complete control), approx. 10 days; read-out: Plant response rating, Wheat", "method_in_brief": "as §2"}}, "data": [{"smiles": "Cc1cc(C)c(C(=O)N2CCCCC2)cc1NS(=O)(=O)C(F)(F)F", "note": "[Compound 260, N-[2,4-Dimethyl-5-(1-piperidinylcarbonyl)phenyl]-1,1,1-trifluoromethanesulfonamide]", "values": [{"measurement": "plant injury at 250 g/ha", "setting": "rice (Oryza sativa)", "value": 0, "unit": "%"}, {"measurement": "pest or weed control at 1000 g/ha", "setting": "kochia (Bassia scoparia) [1]", "value": 40, "unit": "%"}, {"measurement": "pest or weed control at 1000 g/ha", "setting": "[2]", "value": 70, "unit": "%"}, {"measurement": "pest or weed control at 250 g/ha", "setting": "[3]", "value": 80, "unit": "%"}, {"measurement": "pest or weed control at 1000 g/ha", "setting": "[4]", "value": 50, "unit": "%"}, {"measurement": "pest or weed control at 1000 g/ha", "setting": "[5]", "value": 50, "unit": "%"}, {"measurement": "pest or weed control at 1000 g/ha", "setting": "kochia (Bassia scoparia) [6]", "value": 0, "unit": "%"}, {"measurement": "pest or weed control at 250 g/ha", "setting": "[7]", "value": 0, "unit": "%"}, {"measurement": "pest or weed control at 1000 g/ha", "setting": "[8]", "value": 100, "unit": "%"}, {"measurement": "pest or weed control at 1000 g/ha", "setting": "[9]", "value": 90, "unit": "%"}, {"measurement": "pest or weed control at 1000 g/ha", "setting": "[10]", "value": 100, "unit": "%"}, {"measurement": "melting point", "value": "262 to 266", "unit": "°C"}, {"measurement": "pest or weed control at 1000 g/ha", "setting": "[11]", "value": 50, "unit": "%"}, {"measurement": "pest or weed control at 1000 g/ha", "setting": "[12]", "value": 60, "unit": "%"}, {"measurement": "pest or weed control at 1000 g/ha", "setting": "[13]", "value": 90, "unit": "%"}, {"measurement": "pest or weed control at 1000 g/ha", "setting": "[14]", "value": 80, "unit": "%"}, {"measurement": "pest or weed control at 1000 g/ha", "setting": "[15]", "value": 100, "unit": "%"}, {"measurement": "Corn plant response rating (crop injury, 0 = no effect, 100 = complete kill) at 1000 g/ha", "setting": "corn (Zea mays)", "value": 10, "unit": "%"}, {"measurement": "pest or weed control at 1000 g/ha", "setting": "[16]", "value": 100, "unit": "%"}, {"measurement": "plant injury at 1000 g/ha", "setting": "[17]", "value": 60, "unit": "%"}]}]}
